Experiment [1] relates to OE21 cells. Put plainly: Quantification of aberrant mitoses (CLSM). It is filed as cell-based, human. The settings on record: OE21, IC50 concentration, 24 h. The procedure:
Microscopy and immunofluorescence. Cells were seeded on ibidi 35 mm µ-dishes (Thistle Scientific), allowed to adhere for 24 h and treated as stated in the main text. Cell media was removed, cells washed with PBS and fixed with formaldehyde (4%, 10 mins). Cells were permeablised with Triton (0.5% in PBS, 5 mins) and washed with PBS. Samples were blocked with BSA (3% in PBS-T) for 1 h before incubation with primary antibody (either anti-α-tubulin or anti-γ H2AX, 1/500 dilution) in BSA (3% in PBS-T) for 1 h. Samples were washed 3x in PBS-T and incubated with Alexa Fluor-conjugated secondary antibodies (3% in PBS-T, 1 h, 1/250 dilution). After further washing (3x5 min PBS-T) samples were co-stained with DAPI (5 ng/ml, 2 min), fresh PBS added and visualised by confocal microscopy. Samples were visualised using a Zeiss LSM 780 or LSM 710 inverted confocal microscope and EC Plan-Neofluar 40x/1.30 Oil objectives. […]
(§1) For the determination of mutation induction, from the untreated and each treated condition, 2x10^5 cells were plated in 10 x 100 mm dishes in selective media (regular media

For experiment [2], the system named is FLO-1 human oesophageal adenocarcinoma. Briefly: MTT assay, FLO-1 cells. The experiment is classed as cell-based. As for the experimental part: MTT assay. OE21, FLO-1 or hSAEC1-KT cells were seeded in 96 well plates at 20,000 cells/well (for 24 h treatment) or 10,000 cells/well (for 72 h treatment) and allowed to adhere for 24 h before treatment. OE33 cells were seeded in 48 well plates at 40,000 cells/well (24 h treatment) or 20,000 cells/well (72 h treatment). Cancer cell lines were treated with chemicals dissolved in RPMI media for consistency. After incubation, 0.5 mg/ml MTT (thiazolyl blue tetrazolium bromide) dissolved in serum-free medium was added for 60 minutes and the formazan product eluted using acidified isopropanol.
The absorbance at 540 nm was quantified by plate reader (reference wavelength 650 nm). The metabolic activity of the cell population was determined as a percentage of a negative (solvent) control. […]
as §1
A general note: Formazan colour is commonly taken as a measure of viable cells.

The subject of experiment [3] is OE21 cells. Briefly: Apoptosis (AnnexinV staining, karyorrhexis, cleaved caspase 3). It is filed as cell-based, human. The settings on record: OE21, 21 μM, 24 h. The procedure:
(§2) phototoxic contribution to bio-activity. Doxorubicin (Sigma) was prepared in doubly-distilled water (10 mg/mL, 17.4 mM).
(§3) [Ru(phen)2(dppz)]2+ (2 mM) was prepared in doubly-distilled water.
(§4) Sub-cellular fractionation. OE21 or OE33 cells were treated in 12 well plates, washed with cold PBS (2x2 mls) and nuclear and cytosol fractions obtained using the Nuclei EZ Lysis kit (Sigma). Briefly, cells were washed with acidified PBS (pH 2.5) to remove the membrane-bound fraction and 0.4 ml EZ lysis buffer was added. Cells were detached by scraping, collected into eppendorfs, vortexed briefly and left for 5 minutes on ice. Samples were centrifuged (500g, 5 mins) and the supernatant (cytosol fraction) aspirated. The pellet (nuclear fraction) was re-suspended in 200 µl RIPA buffer. […] Ruthenium content was determined by ICP-MS analysis as described in a recent […]
(§5) DNA fibre assay. […] CldU- and IdU-labelled tracts were visualised using a Leica DMRB microscope with a DFC360FX camera and tract length measured by ImageJ software. […]
(§6) Western blotting. […] Protein content was determined by BCA assay. […]
(§7) AnnexinV staining. […] This was incubated for 15 mins at room temperature, 400 µl binding buffer added and analysed by flow cytometry (FL1 and FL3 channels for FITC and PI respectively). […]

The subject of experiment [4] is OE21 cells. Put plainly: Cell-cycle analysis by flow cytometry. The experiment is classed as cell-based, human. The conditions noted are these: OE21, 20 μM, 24 h. As for the experimental part:
as §2, §3, §4, §5, §6, §7

In general, IC50 refers to the midpoint of a concentration-inhibition curve. A higher IC50 goes with weaker potency in that assay. With [Ru(phen)2(tpphz)]^2+ [Ru1], in the experiment with OE21 cells [1], the “mitotic aberrations, share of total cell population” value is reported as approximately 8%. In addition, the IC50 was 42 ± 8 µM in experiment [2] (FLO1, 24 h constant exposure) and 11.5 ± 2.1 µM in experiment [2] (FLO1, 72 h constant exposure). Also, the apoptosis entry in the experiment on OE21 cells [3] was “low levels of apoptosis”. Moreover, in the experiment on OE21 cells [4], the “increase in G2/M phase cells compared to control” value is given as “two-fold”.
